Assay results from patent publication US20090069276A1, “Treatment, prevention and amelioration of pulmonary disorders associated with chemotherapy or radiotherapy with active vitamin D compounds or mimics thereof” (Novacea, Inc., priority 2005, published 2009).
Where two headings read alike, the source gives them in different places.

Tests used:
[1] = in vivo; cited from earlier work
[2] = test system: patients with androgen independent prostate cancer; details: Taxotere 36 mg/m^2 weekly, calcitriol 45 μg weekly by HDPA
Description: Two hundred fifty patients with androgen independent prostate cancer were enrolled in a randomized placebo controlled trial at 48 centers in the United States and Canada. All patients in the study received chemotherapy treatment with weekly Taxotere®, a drug in the taxoid class of chemotherapeutic agents. […] Oral dexamethasone was also given along with the Taxotere® to minimize certain side effects (allergic reactions and fluid retention) associated with Taxotere®.
In addition to Taxotere® and dexamethasone, half of the patients were randomly treated with calcitriol and the other half received a placebo. Calcitriol was administered as three capsules of 15 μg each once a week on the day prior to chemotherapy. […] The same Taxotere® dose of 36 mg/m^2 body surface area was administered to the patients receiving Taxotere® and placebo or Taxotere® in combination with calcitriol. Drugs were administered for three weeks out of a four week cycle, with calcitriol being administered on days 1, 7, and 21 and Taxotere® being administered on days 2, 8, and 22.

patients = details: administered doses; Glover 1988; cited from earlier work
cancer patients [3] = details: cited from earlier work
[4] = Solubility study of calcitriol in the formulations (light microscopy); type: physicochemical; details: each formulation of Table 3; prepared at 50° C., cooled to room temperature; highest concentration tested
Description: To further assess the formulations of calcitriol, a solubility study was conducted to evaluate the amount of calcitriol soluble in each formulation. Calcitriol concentrations from 0.1 to 0.6 μg calcitriol/mg fomulation were prepared by heating the formulations to 50° C. followed by addition of the appropriate mass of calcitriol. The formulations were then allowed to cool to room temperature and the presence of undissolved calcitriol was determined by a light microscope with and without polarizing light. For each formulation, calcitriol was soluble at the highest concentration tested, 0.6 μg calcitriol/mg formulation.

cancer patients [5] = details: cited from earlier work; for Patients who developed pneumonia: refractory chronic lymphocytic leukemia
[6] = acute promyelocytic leukemia, Tallman 1997

## C=C1/C(=C\C=C2/CCC[C@]3(C)C([C@H](C)CC#CC(C)(C)O)=CC[C@@H]23)C[C@@H](O)C[C@@H]1O [Ro23-7553]
[1]
  Hypercalcemic effect, in words: reduced hypercalcemic effect

## CC(=O)O[C@@]12CO[C@@H]1C[C@H](O)[C@@]1(C)C(=O)[C@H](O)C3=C(C)[C@@H](OC(=O)[C@H](O)[C@@H](NC(=O)OC(C)(C)C)c4ccccc4)C[C@@](O)([C@@H](OC(=O)c4ccccc4)[C@H]21)C3(C)C [Taxotere®]
[2]
  Patients hospitalized for dyspnea: four
  Patients who developed ARDS: One

## NCCCNCCSP(=O)(O)O [WR 2721, S-2-(3-aminopropylamino)ethylphosphorothioic acid]
patients
  Patients with emesis: 48%
  Patients with hypotension: 7%

## CC1=C(/C=C/C(C)=C/C=C/C(C)=C/C(=O)O)C(C)(C)CCC1 [all-trans-retinoic acid]
Cancer patients [3]; [6]
  Patients who developed grade III or IV pulmonary toxicity (total): Twenty
  Patients with lethal pulmonary toxicity: 2%
  Patients with life-threatening pulmonary toxicity: 11%
  Patients with severe pulmonary toxicity: 7%

## C=C1/C(=C\C=C2/CCC[C@]3(C)[C@@H]([C@H](C)CCCC(C)(C)O)CC[C@@H]23)C[C@@H](O)C[C@@H]1O [calcitriol, 1α,25-hydroxyvitamin D3]
[4]
  Calcitriol soluble in formulation: ≥ 0.6 μg calcitriol/mg formulation

## Nc1nc(F)nc2c1ncn2[C@@H]1O[C@H](COP(=O)(O)O)[C@@H](O)[C@@H]1O [fludarabine phosphate]
Cancer patients [5]; 15-25 mg/m^2 daily for five days every 28 days
  Patients who developed pneumonia: 22%
Cancer patients [5]; 22-40 mg/m^2 daily for five days every 28 days
  Patients who developed pneumonia: 16%

## Nc1ccn([C@@H]2O[C@H](CO)[C@@H](O)C2(F)F)c(=O)n1 [gemcitabine]
Cancer patients [3]; out of 40 bladder cancer patients, 1200 mg/m^2 IV weekly times three on a 4-week cycle, Stadler 1997
  Patients with grade III-IV respiratory toxicity: 2 patients

## gemtuzumab: cancer drug given to acute myelogenous patients; product Mylotarg™, Wyeth-Ayerst
Cancer patients [5]; acute myelogenous patients, 9 mg/m^2 IV over 2 hours, two doses 14 days apart, Mylotarg package insert
  Patients with grade III or IV pneumonia: 7%
